The target of data set [1] is human cannabinoid CB1 receptor (Homo sapiens, UniProt P21554). The data set can be described thus: In vitro affinity for cannabinoid-CB1 receptors ([3H]CP-55,940 radioligand binding, CHO cell membranes). The note with it: [3H]CP-55,940 as radioligand, read-out: In vitro affinity pKi value (converted). How it is done:
In vitro Affinity for Cannabinoid-CB1 Receptors
The affinity of the compounds of the invention for cannabinoid CB1 receptors can be determined using membrane preparations of Chinese hamster ovary (CHO) cells in which the human cannabinoid CB1 receptor is stably transfected in conjunction with [^3H]CP-55,940 as radioligand. After incubation of a freshly prepared cell membrane preparation with the [^3H]-ligand, with or without addition of compounds of the invention, separation of bound and free ligand is performed by filtration over glassfiber filters. Radioactivity on the filter is measured by liquid scintillation counting.

The target of data set [2] is human CB1 receptor (Homo sapiens, UniProt P21554). The data set can be described thus: In vitro cannabinoid-CB1 receptor antagonism (WIN 55,212-2-induced [3H]-arachidonic acid release in CHO cells). The data set is classed as cell-based. The note with it: antagonism of WIN 55,212-2-induced [3H]-arachidonic acid release, read-out: In vitro antagonism pA2-value (arachidonic acid release) (converted). As to the method: In vitro Cannabinoid-CB1 Receptor Antagonism
In vitro CB1 receptor antagonism can be assessed with the human CB1 receptor cloned in Chinese hamster ovary (CHO) cells. CHO cells are grown in a Dulbecco's Modified Eagle's medium (DMEM) culture medium, supplemented with 10% heat-inactivated fetal calf serum. Medium is aspirated and replaced by DMEM, without fetal calf serum, but containing [^3H]-arachidonic acid and incubated overnight in a cell culture stove (5% CO2/95% air; 37° C.; water-saturated atmosphere). During this period [^3H]-arachidonic acid is incorporated in membrane phospholipids. On the test day, medium is aspirated and cells are washed three times using 0.5 mL DMEM, containing 0.2% bovine serum albumin (BSA). Stimulation of the CB1 receptor by WIN 55,212-2 leads to activation of PLA2 followed by release of [^3H]-arachidonic acid into the medium. This WIN 55,212-2-induced release is concentration-dependently antagonized by CB1 receptor antagonists.

Sequence of human cannabinoid CB1 receptor (P21554 whole entry): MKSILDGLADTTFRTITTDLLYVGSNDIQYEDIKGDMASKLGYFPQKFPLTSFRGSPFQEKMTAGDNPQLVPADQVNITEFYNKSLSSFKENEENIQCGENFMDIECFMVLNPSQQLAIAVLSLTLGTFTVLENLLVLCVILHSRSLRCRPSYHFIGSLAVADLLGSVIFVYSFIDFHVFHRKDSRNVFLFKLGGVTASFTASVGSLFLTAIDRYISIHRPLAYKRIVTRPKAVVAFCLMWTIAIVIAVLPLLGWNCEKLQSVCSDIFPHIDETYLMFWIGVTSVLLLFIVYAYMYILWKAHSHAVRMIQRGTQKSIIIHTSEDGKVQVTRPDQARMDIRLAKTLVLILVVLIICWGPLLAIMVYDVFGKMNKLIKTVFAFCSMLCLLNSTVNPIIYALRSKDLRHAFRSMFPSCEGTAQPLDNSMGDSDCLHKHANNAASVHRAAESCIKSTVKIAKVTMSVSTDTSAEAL
Sequence of human CB1 receptor (P21554 whole entry): as above

As to `N/C(=N\S(=O)(=O)c1ccc(F)cc1)C1CN(c2ccc(Cl)cc2)C(c2ccc(Cl)cc2Cl)=N1` (centres unmarked), the melting point lay within 172 to 175 °C.

For `O=C(NC1CC2CCC1C2)C1CN(c2ccc(Cl)cc2)C(c2ccc(Cl)cc2Cl)=N1` (single isomer, unassigned) [Compound 1, 1-(4-chlorophenyl)-2-(2,4-dichlorophenyl)-N-(exo-2-bicyclo[2.2.1]heptyl)-4,5-dihydro-1H-imidazole-4-carboxamide], the Ki in data set [1] is 20 nM.

On to `O=C(NC1CC2CCC1C2)C1CN(c2ccc(Cl)cc2)C(c2ccc(Cl)cc2Cl)=N1` (single isomer, unassigned) [Compound 2, 1-(4-chlorophenyl)-2-(2,4-dichlorophenyl)-N-(exo-2-bicyclo[2.2.1]heptyl)-4,5-dihydro-1H-imidazole-4-carboxamide], for which, in data set [1], the Ki was 100 nM.

On to `O=C(NN1CCCCC1)C1CN(c2ccc(Cl)cc2)C(c2ccc(Cl)cc2Cl)=N1` (centres unmarked) [Compound 3, 1-(4-chlorophenyl)-2-(2,4-dichlorophenyl)-N-(piperidin-1-yl)-4,5-dihydro-1H-imidazole-4-carboxamide], for which the melting point lay within 113 to 116 °C.

For the compound `O=C(NC1CCCCC1)C1CN(c2ccc(Cl)cc2)C(c2ccc(Cl)cc2Cl)=N1` (centres unmarked) [Compound 4, 1-(4-Chlorophenyl)-2-(2,4-dichlorophenyl)-N-cyclohexyl4,5-dihydro-1H-imidazole-4-carboxamide], the melting point lay within 127 to 129 °C. Moreover, the Kb in data set [2] is 20 nM. In addition, the Ki in data set [1] was 100 nM.

As for `N/C(=N\S(=O)(=O)c1ccc(Cl)cc1)C1CN(c2ccc(Cl)cc2)C(c2ccc(Cl)cc2Cl)=N1` (centres unmarked) [Compound 5, 1-(4-chlorophenyl)-2-(2,4-dichlorophenyl)-N-[(4-chlorophenyl)sulfonyl]-4,5-dihydro-1H-imidazole-4-carboxamidine], the melting point fell in the range of 165 to 166 °C.

As to `CN(C)S(=O)(=O)/N=C(\N)C1CN(c2ccccc2)C(c2ccc(Cl)cc2)=N1` (centres unmarked) [Compound 7, 2-(4-Chlorophenyl)-N-(dimethylaminosulfonyl)-1-phenyl-4,5-dihydro-1H-imidazole-4-carboxamidine], the melting point was in the range of 136 to 139 °C.

In turn, `CN(C)S(=O)(=O)/N=C(\N)C1CN(c2ccc(Cl)cc2)C(c2ccc(Cl)cc2Cl)=N1` (centres unmarked) [Compound 8, 1-(4-chlorophenyl)-2-(2,4-dichlorophenyl)-N-(dimethylaminosul-fonyl)-4,5-dihydro-1H-imidazole-4-carboxamidine] returned a melting point of 146 to 147 °C. The Ki in data set [1] was 158 nM.

The melting point is the temperature of the solid-liquid transition.
